Laboratory results reported in patent US20100209931A1, “Compositions for Identifying Novel Compositions for the Treatment of Disease and Methods of Using Same” (priority 2009, published 2010).
Entries after “also recorded” stand apart in the source; their conditions may differ.

What was measured:
erg6Δ cells = assay: 96-well plate growth assay, erg6Δ strain; type: cell-based, Saccharomyces cerevisiae
MPNST cell lines = assay: growth of MPNST cell lines; type: cell-based, human
erg6Δ ira2Δ cells [1] = assay: 96-well plate growth assay, erg6Δ ira2Δ strain; type: cell-based, Saccharomyces cerevisiae; details: for sensitivity of growth to compound: erg6Δ ira2Δ, 96-well plate growth assay, optical density, 30° C.
erg6Δ ira2Δ cells [2] = assay: growth on solid agar media, serial dilutions spotted; details: SC plates with compound, three days at 30° C.
cells lacking IRA2 = assay: growth of cells lacking IRA2, 96-well plates; type: cell-based, Saccharomyces cerevisiae
erg6Δ iralΔ ira2Δ = assay: 96-well plate growth assay, erg6Δ ira1Δ ira2Δ strain; details: genotype erg6Δ iralΔ ira2Δ; OD 595 nm after 24 hours
Experimental: Wild type yeast cells (MLY41 a strain derived from the Σ11278b background) and cells having the genotypes shown in Table 2 are grown overnight in SC media, 75 μL of culture at a starting optical density of 0.1 are added to a 96 well plate containing 75 μL of SC media with twice the desired final concentration of the compound of Formula I in 1% DMSO. Plates are incubated in a humidified 30° C. chamber and scanned on an optical density plate reader at 595 nm after 24 hours. […] Strains are treated as described above, and the growth of the culture is monitored for 24 hours at the indicated intervals. The points represent the mean of three wells per condition.

Q: Which “sensitivity of growth to compound” value (erg6Δ cells; erg6Δ alone, 96-well plate growth assay) does the source give for COc1cccc(-c2cc(=O)c3ccccc3o2)c1N [PD98059] here?
A: not sensitive

Q: What about the “growth in MPNST lines” value (MPNST cell lines) of the same compound?
A: inhibiting growth

Q: What about the “selective suppression of growth of NF1-/- MPNST cell line relative to NF1+/+ MPNST line” value (MPNST cell lines; NF1−1− MPNST cell line relative to NF1+/+ MPNST line) of the same compound?
A: selectively suppress growth

Q: And the “sensitivity of cells lacking ERG6 and IRA2” value (erg6Δ ira2Δ cells [1]; 50 μM PD98059)?
A: sensitive

Q: What about the “sensitivity of cells lacking ERG6 and IRA2” value (erg6Δ ira2Δ cells [1]; 25 μL (so in the source) PD98059, 24 hours) of the same compound?
A: less sensitive

Q: And the “sensitivity of growth to compound” value (erg6Δ ira2Δ cells [1])?
A: sensitized; also recorded: increased sensitivity

Q: What about the “sensitivity of growth on agar media” value (erg6Δ ira2Δ cells [2]) of the same compound?
A: increased sensitivity

Q: For CC[C@@]1(O)C(=O)OCc2c1cc1n(c2=O)Cc2cc3ccccc3nc2-1 [camptothecin], which “sensitivity of growth on agar media” value (erg6Δ ira2Δ cells [2]) is on record?
A: differential sensitivity; also recorded: sensitizes

Q: CO[C@H]1C[C@@H]2CC[C@@H](C)[C@@](O)(O2)C(=O)C(=O)N2CCCC[C@H]2C(=O)O[C@H]([C@H](C)C[C@@H]2CC[C@@H](O)[C@H](OC)C2)CC(=O)[C@H](C)/C=C(\C)[C@@H](O)[C@@H](OC)C(=O)[C@H](C)C[C@H](C)/C=C/C=C/C=C/1C [rapamycin] was tested. Which “growth inhibition of cells lacking IRA2 by rapamycin alone” value (cells lacking IRA2; rapamycin dose used in combination, 24 hours) did it give?
A: does not inhibit

Q: How did the “Effect of Compound of Formula II” value (erg6Δ cells; genotype erg6Δ, OD 595 nm after 24 hours) turn out when N=C(N)SCc1cn(-c2ccccc2)nc1-c1cccc(Br)c1 [Formula II] was run?
A: Inhibition at 50 uM

Q: What about the “sensitivity of growth to compound” value (erg6Δ ira2Δ cells [1]) of the same compound?
A: differential sensitivity

Q: What about the “Effect of Compound of Formula II” value (erg6Δ ira2Δ cells [1]; genotype ira2Δ, erg6Δ, OD 595 nm after 24 hours) of the same compound?
A: Inhibition at 10 uM and 50 uM

Q: What about the “Effect of Compound of Formula II (inhibition at concentration)” value (erg6Δ iralΔ ira2Δ) of the same compound?
A: Inhibition at less than 10 uM

Q: What about the “growth of cells lacking IRA2” value (cells lacking IRA2; FIG. 7) of the same compound?
A: Growth inhibition
